Here are results for 23 compounds from patent publication US20250163043A1 (TRANSTHERA SCIENCES (NANJING), INC., priority 2021, published 2025).

Each structure is given as a SMILES string.

Sequence of CDK9/CycT1 (P50750 whole entry): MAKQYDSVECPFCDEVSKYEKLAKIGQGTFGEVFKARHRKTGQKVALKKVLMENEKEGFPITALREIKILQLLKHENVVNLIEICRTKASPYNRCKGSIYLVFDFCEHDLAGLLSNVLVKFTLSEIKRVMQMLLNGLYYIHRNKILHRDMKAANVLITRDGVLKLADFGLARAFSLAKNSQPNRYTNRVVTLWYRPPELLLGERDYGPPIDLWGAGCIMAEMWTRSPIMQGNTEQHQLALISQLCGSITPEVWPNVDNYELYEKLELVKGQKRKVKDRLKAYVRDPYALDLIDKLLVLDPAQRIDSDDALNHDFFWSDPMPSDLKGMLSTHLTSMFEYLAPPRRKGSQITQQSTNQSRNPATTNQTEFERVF
Sequence of CDK9/CycT1 (O60563 whole entry partner): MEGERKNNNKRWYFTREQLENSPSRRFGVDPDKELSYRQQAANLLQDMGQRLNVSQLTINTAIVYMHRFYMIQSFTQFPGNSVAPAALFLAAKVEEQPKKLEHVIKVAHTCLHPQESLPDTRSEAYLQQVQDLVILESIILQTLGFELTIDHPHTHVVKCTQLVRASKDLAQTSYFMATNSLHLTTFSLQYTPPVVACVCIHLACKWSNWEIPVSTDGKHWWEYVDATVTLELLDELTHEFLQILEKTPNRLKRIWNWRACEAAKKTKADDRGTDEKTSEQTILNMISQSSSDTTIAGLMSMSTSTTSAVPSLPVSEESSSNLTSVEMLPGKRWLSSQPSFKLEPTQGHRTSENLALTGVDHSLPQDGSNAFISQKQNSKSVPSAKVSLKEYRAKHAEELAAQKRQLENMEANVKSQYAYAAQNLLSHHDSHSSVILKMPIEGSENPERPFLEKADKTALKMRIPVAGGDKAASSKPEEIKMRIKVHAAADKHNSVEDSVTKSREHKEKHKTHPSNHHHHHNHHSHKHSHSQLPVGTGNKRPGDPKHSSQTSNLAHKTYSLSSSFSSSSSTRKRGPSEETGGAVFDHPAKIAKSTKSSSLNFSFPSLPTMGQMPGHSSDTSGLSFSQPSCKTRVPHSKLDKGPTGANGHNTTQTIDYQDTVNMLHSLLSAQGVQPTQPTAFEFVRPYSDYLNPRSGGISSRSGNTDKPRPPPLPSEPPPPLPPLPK

In this test the target is CDK9/CycT1 (Homo sapiens, UniProt P50750). As to the kind of experiment: Off-chip mobility shift assay (MSA) on CDK9/CycT1. It is filed as biochemical. Details: Full-length human CDK9 [1-372(end) amino acids of; host or cells: baculovirus expression system. To be noted: 4-point concentration (0.0016, 0.008, 0.04, 0.2 uM), ATP 10 μM, reaction time 5 hours, read-out: CDK9/CycT1/nM (inhibitory activity). As to the method:
Prepare 100× concentrated Test compound stock solutions with DMSO. Then, Dilute the solution 25 times with Assay Buffer (20 mM HEPES, 0.01% Triton X-100, 2 mM DTT, pH7.5) to prepare 4× test compound solutions.
Test compounds were evaluated at 4-point concentration (0.0016, 0.008, 0.04, 0.2 uM). • 1) Mix 5 μL of 4× test compound solution with 5 μL of 4× substrate/ATP/Metal solution and 10 μL of 2× kinase solution in 384-well polypropylene plate. Incubate for 5 hours at room temperature. • 2) Add 70 μL of Termination Buffer (QuickScout Screening Assist MSA; Carna Biosciences) to stop the reaction. • 3) Separate and detect unphosphorylated/phosphorylated substrate peptides in the reactant using LabChip system (Perkin Elmer). • 4) Evaluate kinase reaction from product ratio (P/(P+S)) calculated by peak height of unphosphorylated substrate(S) and peak height of phosphorylated substrate (P).
As for `C[C@@H](O)c1cc2cnc(N[C@H]3CC[C@H](NC(=O)CN(C)C)CC3)nc2c(NCC(C)(C)C)n1` [Compound 64, 2-(dimethylamino)-N-((1R,4r)-4-((6-((R)-1-hydroxyethyl)-8-(neopentylamino)pyrido[3,4-d]pyrimidin-2-yl)amino)cyclohexyl)acetamide], the IC50 came to 26 nM.
Then `CC(=O)N[C@H]1CC[C@H](Nc2ncc3cc([C@@H](C)O)nc(NC(C)C)c3n2)CC1` [Compound 65, N-((1R,4r)-4-((6-((R)-1-hydroxyethyl)-8-(isopropylamino)pyrido[3,4-d]pyrimidin-2-yl)amino)cyclohexyl)acetamide], with 21 nM.
Then `CC(C)Nc1nc(C#N)cc2cnc(N[C@H]3CC[C@H](NC(=O)CN(C)C)CC3)nc12` [Compound 66, N-((1r,4r)-4-((6-cyano-8-(isopropylamino)pyrido[3,4-d]pyrimidin-2-yl)amino)cyclohexyl)-2-(dimethylamino)acetamide], with 5 nM; and `CC(C)Nc1nc([C@@H](C)O)cc2cnc(N[C@H]3CC[C@H](N4CCN(C)CC4)CC3)nc12` [Compound 67, (R)-1-(8-(isopropylamino)-2-(((1r,4R)-4-(4-methylpiperazin-1-yl)cyclohexyl)amino)pyrido[3,4-d]pyrimidin-6-yl)ethan-1-ol], with 10 nM; and `CC(C)Nc1nc([C@@H](C)O)cc2cnc(NCC3CCN(S(C)(=O)=O)CC3)nc12` [Compound 68, (R)-1-(8-(isopropylamino)-2-(((1-(methylsulfonyl)piperidin-4-yl)methyl)amino)pyrido[3,4-d]pyrimidin-6-yl)ethan-1-ol], with 82 nM.
Regarding `CC(=O)N1CCC(CNc2ncc3cc([C@@H](C)O)nc(NC(C)C)c3n2)CC1` [Compound 69, (R)-1-(4-(((6-(1-hydroxyethyl)-8-(isopropylamino)pyrido[3,4-d]pyrimidin-2-yl)amino)methyl)piperidin-1-yl)ethan-1-one], the IC50 amounted to 81 nM.
As for `CC(C)Nc1nc([C@@H](C)O)cc2cnc(NCC3CCCN(S(C)(=O)=O)C3)nc12` (stereo partly drawn) [Compound 70, (1R)-1-(8-(isopropylamino)-2-(((1-(methylsulfonyl)piperidin-3-yl)methyl)amino)pyrido[3,4-d]pyrimidin-6-yl)ethan-1-ol], the figure is 61 nM; as for `CC(=O)N[C@H]1CC[C@H](CNc2ncc3cc([C@@H](C)O)nc(NC(C)C)c3n2)CC1` [Compound 72, N-((1R,4r)-4-(((6-((R)-1-hydroxyethyl)-8-(isopropylamino)pyrido[3,4-d]pyrimidin-2-yl)amino)methyl)cyclohexyl)acetamide], 97 nM.
Then `CC(C)Nc1nc([C@@H](C)O)cc2cnc(NC[C@H]3CC[C@H](NS(C)(=O)=O)CC3)nc12` [Compound 73, N-((1R,4r)-4-(((6-((R)-1-hydroxyethyl)-8-(isopropylamino)pyrido[3,4-d]pyrimidin-2-yl)amino)methyl)cyclohexyl)methanesulfonamide], with 61 nM; and `CC(C)Nc1nc([C@@H](C)O)cc2cnc(N[C@H]3CC[C@H](NC4CCOCC4)CC3)nc12` [Compound 74, (R)-1-(8-(isopropylamino)-2-(((1r,4R)-4-((tetrahydro-2H-pyran-4-yl)amino)cyclohexyl)amino)pyrido[3,4-d]pyrimidin-6-yl)ethan-1-ol], with 19 nM; and `CC(C)Nc1nc([C@@H](C)O)cc2cnc(N[C@H]3CC[C@H](O)CC3)nc12` [Compound 75, (1R,4r)-4-((6-((R)-1-hydroxyethyl)-8-(isopropylamino)pyrido[3,4-d]pyrimidin-2-yl)amino)cyclohexan-1-ol], with 36 nM.
Turning to `CC(C)Nc1nc([C@@H](C)O)cc2cnc(N[C@H]3CC[C@H](N)CC3)nc12` [Compound 76, (R)-1-(2-(((1r,4R)-4-aminocyclohexyl)amino)-8-(isopropylamino)pyrido[3,4-d]pyrimidin-6-yl)ethan-1-ol], the IC50 was 10 nM.
Turning to `CNC(=O)[C@H]1CC[C@@H](Nc2ncc3cc([C@@H](C)O)nc(NC(C)C)c3n2)C1` [Compound 79, (1S,3R)-3-((6-((R)-1-hydroxyethyl)-8-(isopropylamino)pyrido[3,4-d]pyrimidin-2-yl)amino)-N-methylcyclopentane-1-carboxamide], the IC50 stood at 23 nM.
Then `CC(C)Nc1nc([C@@H](C)O)cc2cnc(N[C@H]3CC[C@H](NC4COC4)CC3)nc12` [Compound 80, (R)-1-(8-(isopropylamino)-2-(((1r,4R)-4-(oxetan-3-ylamino)cyclohexyl)amino)pyrido[3,4-d]pyrimidin-6-yl)ethan-1-ol], with 12 nM; and `CC(C)Nc1nc([C@@H](C)O)cc2cnc(NC[C@H]3CC[C@H](N)CC3)nc12` [Compound 82, (R)-1-(2-((((1r,4R)-4-aminocyclohexyl)methyl)amino)-8-(isopropylamino)pyrido[3,4-d]pyrimidin-6-yl)ethan-1-ol], with 63 nM.
Then `CC(C)Nc1nc([C@@H](C)O)cc2cnc(NCC3CCNCC3)nc12` [Compound 84, (R)-1-(8-(isopropylamino)-2-((piperidin-4-ylmethyl)amino)pyrido[3,4-d]pyrimidin-6-yl)ethan-1-ol], with 47 nM; and `CC(C)Nc1nc([C@@H](C)O)cc2cnc(NCCCO)nc12` [Compound 85, (R)-3-((6-(1-hydroxyethyl)-8-(isopropylamino)pyrido[3,4-d]pyrimidin-2-yl)amino)propan-1-ol], with 64 nM.
As for `CC(C)Nc1nc([C@@H](C)O)cc2cnc(NC(=O)[C@@H]3CCCNC3)cc12` [Compound 86, (R)—N-(7-((R)-1-hydroxyethyl)-5-(isopropylamino)-2,6-naphthyridin-3-yl)piperidine-3-carboxamide], the figure is 50 nM; as for `CC(=O)c1cc2cnc(N[C@H]3CC[C@H](O)CC3)nc2c(NC(C)C)n1` [Compound 88, 1-(2-(((1r,4r)-4-hydroxycyclohexyl)amino)-8-(isopropylamino)pyrido[3,4-d]pyrimidin-6-yl)ethan-1-one], 44 nM; as for `CC(C)Nc1nccc2cnc(N[C@H]3CC[C@H](O)CC3)nc12` [Compound 89, (1r,4r)-4-((8-(isopropylamino)pyrido[3,4-d]pyrimidin-2-yl)amino)cyclohexan-1-ol], 24 nM.
As for `CC(C)Nc1nc(C(F)F)cc2cnc(N[C@H]3CC[C@H](O)CC3)nc12` [Compound 91, (1r,4r)-4-((6-(difluoromethyl)-8-(isopropylamino)pyrido[3,4-d]pyrimidin-2-yl)amino)cyclohexan-1-ol], the IC50 came to 6 nM.
Consider `Cc1cc2cnc(N[C@H]3CC[C@H](O)CC3)nc2c(NC(C)C)n1` [Compound 92, (1r,4r)-4-((8-(isopropylamino)-6-methylpyrido[3,4-d]pyrimidin-2-yl)amino)cyclohexan-1-ol], for which the IC50 was found to be 64 nM.
As for `C#Cc1cc2cnc(N[C@H]3CC[C@H](O)CC3)nc2c(NC(C)C)n1` [Compound 93, (1r,4r)-4-((6-ethynyl-8-(isopropylamino)pyrido[3,4-d]pyrimidin-2-yl)amino)cyclohexan-1-ol], the figure is 7 nM.
